These results are taken from EP0314008A2, “N-substituted aliphatic heterocyclic compounds able to facilitate the passage of active substances through physiological barriers” (priority 1987, dated 1989).

One data set deals with serotonin. The data set is described as follows: Test 74 - Antiserotonin (in vitro), isolated ileal segments. It is filed as cell-based, guinea pig. As to conditions: Cavia porcellus, contractile response to serotonin (1 mcg/ml); for inhibition at 1 µg/mL: Dose 1 γ/ml. The source says:
Test 74 - Antiserotonin (in vitro):

In data set [1] the test system is skin taken from a "nude" mouse.
Method: (§1) This study was carried out by "in vitro" tests using a skin diffusion cell apparatus consisting of two glass segments separated by a layer of skin taken from a "nude" mouse, genetically without hair. Suspensions of the substance to be tested are deposited on the stratum corneum of the skin. The dermic layer dips into a buffer solution from which withdrawals are made at intervals to determine the quantity of substance which has passed through the epidermis.
(§2) 1-dodecylazacycloheptan-2-one (azone) is used as reference standard.
(§3) Suspensions at the required concentrations (0.5 and 1% w/v) are then prepared by ultrasonic treatment three times for 30 seconds in an ice bath with a titanium-tipped ultrasonic generator. The pHs of the 1 % suspensions in 0.1 M pH 7.0 phosphated buffer are as follows:
(§4) The volume of examined suspension applied externally to the skin is 1 ml. The volume of buffer solution in the cell lower chamber is 10 ml. After each withdrawal of 1 ml of solution from the lower chamber, the volume was made up to 10 ml by adding buffer.
Data set [2] deals with skin taken from a "nude" mouse. The experiment in a line: skin permeability test in vitro, skin diffusion cell apparatus, passage of naproxen-Na. The settings on record: naproxen-Na passage with facilitating substance at 0.5%, second set.
Method: as §1, §2, §3, §4
Another data set relates to LTD4. The data set is described as follows: Test 37 - LTD4 antagonist (in vitro), isolated ileal segments. The settings on record: Cavia porcellus, contractile response to LTD4 (10 ng/ml). It is filed as cell-based, guinea pig. The source says: Test 37 - LTD4 antagonist (in vitro):
In a further data set the test system is histamine. The experiment in a line: Test 73 - Antihistaminic (in vitro), isolated ileal segments. As to conditions: Cavia porcellus, contractile response to histamine (0.5 mcg/ml). It is filed as cell-based, guinea pig. From the text:
Test 73 - Antihistaminic (in vitro):
Inhibition of submaximal contractile responses of isolated guinea pig ileal segments, bathed in physiological salt solution, to histamine (0.5 mcg/ml) by more than 80 percent (>80) indicates activity.

For orientation: inhibition means the share of the control response that was lost under treatment. Take `CN1CCC(=C2c3ccccc3C=Cc3ccccc32)CC1` [Cyproheptadine, reference compound]: the inhibition at 1 µg/mL in the data set on serotonin was determined as 85%.

Turning to `CCCCCCCCCCCCN1CCSCC1` [Example 1, 4-dodecylthiomorpholine], in data set [1], the “results compared with the compound of Example 3” value is given as “practically equal results”.

As for `CCCCCCCCCCCCN1CC[S+]([O-])CC1` [Example 2, 4-dodecylthiomorpholine-1-oxide], the “F.U.a. 355.5 nm” value was 0.143 F.U.a in data set [2] (3.0 hours), 0.426 F.U.a in data set [2] (5.0 hours), 0.755 F.U.a in data set [2] (7.0 hours) and 0.033 F.U.a in data set [2] ([…]). The nmoles passed in data set [2] (3.0 hours) turned out to be 366.0 nmol; in data set [2] (5.0 hours) it was 1093.0 nmol; in data set [2] (7.0 hours), 1968.0 nmol; in data set [2] ([…]), 82.5 nmol.

Turning to `CCCCCCCCCC(=O)N1CCSCC1` [Example 5, 4-decanoylthiomorpholide], the inhibition at 0.5 µg/mL with serotonin (Dose 0.5 γ/ml) worked out at 68%. Also, the inhibition at 1 µg/mL in the data set on serotonin worked out at 100%; in the data set on histamine (Dose 1 γ/ml), 18%. Also, the results for the inhibition at 2.5 µg/mL in the data set on serotonin (Dose 2.5 γ/ml) and in the data set on histamine (Dose 2.5 γ/ml) were 100% and 82%, respectively. Moreover, the inhibition at 10 µg/mL in the data set on serotonin (Dose 10 γ/ml) and in the data set on histamine (Dose 10 γ/ml) was 100% in each case. Further, the inhibition at 4 µg/mL in the data set with LTD4 (Dose 4 γ/ml) was 28%. Further, the inhibition at 8 µg/mL with LTD4 (Dose 8 γ/ml) was found to be 75%.
